According to US8772344B2, “Pharmaceutical composition for inhibiting osteoclast growth” (National Defense Medical Center, priority 2011, dated 2014):

Experiments:
[1] = tested on: osteoclasts from bone marrow-derived macrophages; experiment: Osteoclast formation from bone marrow-derived macrophages (M-CSF and RANKL), TRAP staining and count of multinucleated cells; format: cell-based, DBA/1J mice; conditions: for effect for inhibiting osteoclast growth: comparison among the nine compounds of table 1, cell system not stated; for inhibiting osteoclasts grown (observation of plates, FIG. 2A) / numbers of osteoclasts as a function of concentration (FIG. 3): bone marrow-derived macrophages; for inhibiting osteoclasts grown (observation of plates, FIG. 2A): 10 nM, 15 nM and 20 nM, effect positive proportional to the concentration; for numbers of osteoclasts as a function of concentration (FIG. 3): compared to the contrast containing M-CSF and RANKL only
Procedure: Bone marrow cells (BMCs) from DBA/1J mice were obtained for osteoclast progenitor cell preparation. The BMCs were isolated from the tibias and femurs of 8-wk-old male mice by flushing the bone marrow cavity with PBS. The cells were then centrifuged at 1000 g for 10 min and exposed to 5 ml of hypotonic ACK buffer ([…], and 0.1 mM EDTA, (pH 7.4)) at room temperature for […] to remove the red blood cells. They were incubated with α-MEM (Gibco BRL) containing penicillin (100 U/ml), streptomycin (100 μg/ml) and 10% heat-inactivated FBS for 12 hr to separate the floating and adherent cells. The floating cells were collected, suspended in α-MEM, counted, seeded onto a 96-well plate at 4×10^4 cells/well, and cultured in α-MEM in the presence of 30 ng/ml M-CSF for 3 days to form macrophage-like osteoclast precursor cells. […] On day 3, the medium was replaced with fresh medium containing M-CSF, RANKL and P. amboinicus.
(§1) TRAP staining was performed as described Han et al. 2007. Briefly, cells were washed with PBS and fixed with 3.7% formaldehyde for 30 min. After washing with PBS, cells were incubated at 37 in a humid and light-protected incubator for 1 hr in the reaction mixture of the Leukocyte Acid Phosphatase Assay kit (Cat. 387, Sigma), as directed by the manufacturer. Cells were washed three times with distilled water and TRAP-positive multinucleated cells containing five or more nuclei were counted under a light microscope. To measure TRAP activity, cells were lysed in 150λ of 0.2% Triton X-100 in PBS, RT for 15 min and then incubated with 100λ of phosphatase substrate solution kit (Cat. CS0740, Sigma) at 37 for 30 min. After incubation, the enzyme reaction mixture was transferred to another plate and the reaction was stopped with 100λ of 0.5N NaOH. Absorbance was measured at 405 nm in a ELISA plate reader, and activity calculated from standard curve generated using p-nitrophenol standards. TRAP activity was normalized to total protein (determined by the BCA assay (Cat. 23225, PIERCE)) as well as to total number of nuclei counted after TRAP and hematoxylin staining of a second, identical 96-well plate run in conjunction with that used for the TRAP assay.
(§2) Please refer to FIG. 1A and FIG. 1B, bone marrow-derived macrophages were plated in a plate A with M-CSF (FIG. 1A) and a plate B with M-CSF and RANKL (FIG. 1B) and murine RAW264.7 were plated in a plate C (FIG. 1C) and a plate D with RANKL (FIG. 1D) separately. After a period, the growth of the osteoclast in the plate A (plate C) is different from that in the plate B (plate D). According to the abovementioned, M-CSF and RANKL secreted by the osteoblasts will promote the growth of the osteoclast. Therefore, the growth of the osteoclast cannot be seen in the plate A. In the contrast, there are a lot of osteoclasts grown in the plate B.

[2] = tested on: murine RAW264.7; experiment: Osteoclast differentiation of murine RAW264.7 cells (RANKL), TRAP staining and count of multinucleated cells; format: cell-based; conditions: for inhibiting osteoclasts grown (observation of plates, FIG. 2B): 10 nM, 15 nM and 20 nM, effect positive proportional to the concentration; for numbers of osteoclasts as a function of concentration (FIG. 4): compared to the contrast containing RANKL only
Procedure: Murine RAW264.7 (murine leukemic monocyte/macrophage), a type of osteoclast progenitor cells. The murine monocyte/macrophage cell line RAW264.7 was cultured with DMEM (Gibco BRL) containing 10% heat-inactivated FBS, penicillin (100 U/ml), and streptomycin (100 μg/ml). All cells were grown in a humidified atmosphere containing 5% CO^2 at 37. To induce osteoclast differentiation, RAW264.7 cells were suspended in α-MEM containing 10% FBS, 2 mM […], 100 U/ml penicillin, and 100 μg/ml streptomycin, seeded at 10^4 cells/dish in a 96-well plate and cultured with 100 ng/ml soluble RANKL for 5 days. The medium was changed on day 3.
as §1, §2

Row | Structure (SMILES) | effect for inhibiting osteoclast growth [1] | inhibiting osteoclasts grown (observation of plates, FIG. 2B) [2] | numbers of osteoclasts as a function of concentration (FIG. 4) [2] | inhibiting osteoclasts grown (observation of plates, FIG. 2A) [1] | numbers of osteoclasts as a function of concentration (FIG. 3) [1]
1 | O=C(Nc1cccc(C(F)(F)F)c1)c1ccccc1O [Compound 1, 2-hydroxy-N-[3-(trifluoromethyl)phenyl]benzamide] | most significant effect for inhibiting osteoclast growth |  |  |  | 
2 | O=C(Nc1ccc(F)c(F)c1)c1ccccc1O [Compound 5, N-(3,4-difluorophenyl)-2-hydroxybenzamide] | most significant effect for inhibiting osteoclast growth | have the effect for inhibiting osteoclasts grown | can inhibit osteoclasts grown | have the effect for inhibiting osteoclasts grown | can inhibit osteoclasts grown
3 | C#Cc1cccc(NC(=O)c2ccccc2O)c1 [Compound 3, N-(3-ethynylphenyl)-2-hydroxybenzamide] | most significant effect for inhibiting osteoclast growth | have the effect for inhibiting osteoclasts grown | can inhibit osteoclasts grown | have the effect for inhibiting osteoclasts grown | can inhibit osteoclasts grown
4 | O=C(Nc1ccc(Cl)cc1F)c1ccccc1O [Compound 6, N-(4-chloro-2-fluorophenyl)-2-hydroxybenzamide] | most significant effect for inhibiting osteoclast growth | have the effect for inhibiting osteoclasts grown | can inhibit osteoclasts grown | have the effect for inhibiting osteoclasts grown | can inhibit osteoclasts grown
